Test results reported in US12161114B2, “Overpowered ABA receptor agonists” (The Regents of the University of California, priority 2018, dated 2024).
Entries after “also recorded” stand apart in the source; their conditions may differ.

Assays:
[1] = tested on: pyr1/pyl1, pyl8/pyl9 and abi1C mutants; experiment: seed germination on receptor mutants and ABA signalling mutant abi1C; assay type: in vivo, Arabidopsis; details: tested at twice the EC50
Method: Prior to selecting a scaffold for optimization we conducted Arabidopsis seed germination assays to establish if the hits obtained are activity in vivo. Germination experiments were performed with surface sterilized wild type Columbia Arabidopsis thaliana seeds and abi1C (the abi1-1 allele isolated in the Columbia ecotype) plated onto 0.7% agar medium containing 1/2-x MS salts, 0.5% sucrose and differing concentrations of the test compounds. After 4d of stratification at 4° C., the plates were transferred to a growth chamber under continuous illumination and evaluated after 4 days.
Methods similar to example 3 were followed.

[2] = tested on: panel of recombinant ABA receptors; PP2C HAB1; experiment: receptor-mediated PP2C inhibition assay, dose response, umbelliferone substrate; assay type: biochemical, Arabidopsis
Method: Each ligand was tested at concentrations spanning 7 points between 4 nM and 50 μM in triplicate in a reaction buffer containing 100 mM Tris-HCl-pH7.9, 100 mM NaCl, 30 μg/ml BSA, 0.1% 2-mercaptoethanol, 25 nM ΔN-HAB1, 1 mM 4-methylumbelliferyl phosphate, and different recombinant ABA receptors at 50 nM or 300 nM (for PYL9 or PYL11). The substrate was added ˜20 minutes after the other components had been mixed and fluorescence data collected. Control carrier solvent-only wells were included as a reference and %-activity for tested compounds calculated relative to this control. The dose response data (PP2C activity versus agonist concentration) was fit to a log (inhibitor) vs. response-(variable slope) model using non-linear regression to infer the IC50S, using GraphPad Prism 6.0, to yield the IC50 values shown in FIG. 6.
The potency and selectivity of ligands 2b, 2e-f was established by testing their ability to activate multiple ABA receptor subtypes using the fluorescence based phosphasted assay as outlined in example 2 at a range of concentrations (4 nM to 50 μM). In addition, we compared ligand potency to ABA, quinabactin and a recently described fluorinated quinabactin analog AMF4, which is reported to have improved potency in comparison toe quinabactin. To conduct the assays purified recombinant receptors were tested at 50 nM or, in the a cases of PYL9 and PYL11, 300 nM and 25 nM ΔN-HAB1. The PP2C-activity dose response data obtained was fit to a log (inhibitor) vs response-(variable slope) model using non-linear regression to infer the IC50S, using GraphPad Prism 6.0, to yield IC50 values as shown in FIG. 12A. […] Moreover, the installation of a single cyclopropyl group ortho to the nitrile (analog 2e) provided a further boost in potency, dramatically so for all subfamily III receptors, PYL4 and PYL11. […] Furthermore, the installation of a second cyclopropyl substituent (analog 2f) provides an even further boot in activity on subfamily III receptors, which comes at the expense of reduced potency on subfamily I receptors. […] 2f is therefore an unusually overpowered ABA receptor agonist, which we refer to as opabactin (Opa).

tomato plants = experiment: thermal imaging of leaf temperature (anti-transpirant activity), tomato; assay type: in vivo, Lycopersicon esculentum; details: var. UC82, 50 μM or 100 μM spray, 24 hour intervals for 5 days
Method: To evaluate the efficacy of Opa in a different crop species, we performed quantitative thermal imaging in tomato plants. Tomato (var. UC82), seeds were spread on a moist filter paper and incubated in a dark chamber at room temperature for 7 days, after which they were transferred to light. After the first leaves emerged, the seedlings were transferred to soil and grown on a day night cycle; 3-4 w old plants were used for thermal imaging. Before thermal imaging, topical spraying of the plants was performed with a water solution containing ABA, quinabactin or the compound of interest, 0.5% DMSO and 0.05% Silwet-77 (Lehle seeds). 20 mL of 50 μM or 100 μM solutions were sprayed on the plants and thermal images were taken with an infrared camera (FLIR T62101) at 24 hour intervals after treatment for 5 days. […] Mock treated samples were analyzed with 8 replicates and chemical treatments with 4 replicates. […] The corrected p-values for treatment effects at all time points is summarized in the inset table and highlighted yellow if a significant increase in leaf temperature was observed.

Arabidopsis plants = experiment: thermal imaging of leaf temperature (anti-transpirant activity), Arabidopsis; assay type: in vivo, Arabidopsis thaliana; details: 50 μM spray, 24 hr after treatment
Method: Three to 4 week old Arabidopsis plants were used for thermal imaging, 4 evenly spaced seedlings were included per 4-inch pot, each pot treated as a single measurement. Chemical treatments were as follow: compounds were dissolved in 0.5% DMSO and 0.02% Silwet-77 (Lehle seeds) at 50 μM and rosette leaves treated with 5 mL applied as an aerosol. Thermal images were collected using FLIR T62101 camera 24 hr after treatment. Seedlings positions were randomized to control for microenvironmental differences in the growth room. Treated plants were compared to mock treated plants (sprayed with 5 mL blank 0.5% DMSO/0.02% Silwet-77 solution). Average rosette leaf temperatures were obtained by averaging the temperatures measured from between 10-15˜1 cm^2 area spots from the 4 plants in each replicate pot, using FLIR software. Statistical analyses of the treatment effects were conducted in GraphPad using a one way ANOVA between control and treatment samples and a Dunnett test was used to obtain multiplicity adjusted p values, which are reported in FIG. 15.

- improved potency relative to ABA ([2]; subfamily IIIA receptors): > 10 x
Structure (SMILES): N#Cc1c(C2CC2)cc(CC(=O)NC2(C(=O)O)CCCCC2)cc1C1CC1 [2f, 1-[2-(4-cyano-3,5-dicyclopropylphenyl)acetamido]cyclohexane-1-carboxylic acid]
- effect on germination in receptor mutant backgrounds [1]: only show diminished activity in the pyr1/pyl1 mutant
- potency in receptor-mediated PP2C inhibition (in words) ([2]; 4 nM to 50 μM dose response): most potent subfamily III agonist reported to date; also recorded: greatly more active than quinabactin and AMF4 on subfamily III receptors
- anti-transpirant activity (leaf temperature) (tomato plants): highly active anti-transpirant in tomato with significantly longer effects than ABA
- effects on transpiration (leaf temperature) (Arabidopsis plants): ABA-like effects on transpiration
